According to PubChem BioAssay AID844 (SRMLSC, 2007):
The source made the active and inactive calls. How the calls were made is not given here.

System: MRP1 cells, doxorubicin viability shift, 10 uM compound
Assay: doxorubicin EC50 increase in MRP-1 cells, dose response, cell-based, doxorubicin EC50 shift (AID 844)
Settings: for EC50: measured here: doxorubicin EC50 with compound

SMILES | fold increase in Dox EC50 | EC50
CN(C)c1ccc(NC(=O)CN2C(=O)CN=C(c3ccccc3)c3cc(Cl)ccc32)cc1 | 1.29 (inactive) | 6.99 µM
CCNc1oc(-c2cccc3ccccc23)nc1C#N | 0.68 (inactive) | 3.68 µM
O=C(CSc1nnc(-c2ccccc2)n1-c1ccc(Cl)cc1)N/N=C/c1ccco1 | 0.53 (inactive) | 2.84 µM
O=C1[C@@H]2C(Cc3ccc(O)cc3)NC3(C(=O)Nc4ccc(F)cc43)[C@@H]2C(=O)N1c1ccc(F)cc1 (stereo partly specified) | 1.39 (inactive) | 7.52 µM
O=C(Cn1c(=O)oc2cc(S(=O)(=O)N3CCCC3)ccc21)NCc1ccccn1 | 1.15 (inactive) | 6.19 µM
COc1ccc(CNc2nc3c(c(=O)n(Cc4ccc(Br)cc4)c(=O)n3C)n2C)cc1 | 0.95 (inactive) | 5.13 µM
CCCC(=O)c1ccc(N2CCOCC2)c(F)c1 | 1.07 (inactive) | 5.75 µM
Cc1ccc(/C=C2\SC(=S)N(CCC(=O)NNC(=O)c3cccnc3)C2=O)cc1 | 0.91 (inactive) | 4.9 µM
CCC1(C)Cc2c(sc3nnn(CC(=O)Nc4ccc(C)cc4)c(=O)c23)CO1 (stereo unspecified) | 1.07 (inactive) | 5.79 µM
Cc1ccc(S(=O)(=O)Nc2ccc3ncccc3c2)cc1 | 1.36 (inactive) | 7.32 µM
CC(C)Oc1ccc(-c2nn(-c3ccccc3)cc2/C=c2\sc3ncnn3c2=O)cc1 | 0.82 (inactive) | 4.4 µM
O=C(CSc1ncn[nH]1)NC12CC3CC(CC(C3)C1)C2 | 0.64 (inactive) | 3.43 µM
Cc1nc(N2CCN(Cc3ccccc3)CC2)nc2c1C(=O)CC(c1ccco1)C2 (stereo unspecified) | 0.75 (inactive) | 4.04 µM
CC1=C(C(=O)OC(C)C)C(c2cccc(F)c2)N2C(=O)C(C)SC2=N1 (stereo unspecified) | 1.21 (inactive) | 6.53 µM
Cc1c(OCC(=O)OC(C)(C)C)ccc2c3c(c(=O)oc12)CCC3 | 1.04 (inactive) | 5.59 µM
CSC1=NP(=S)(SC)N2CCCC2=C1C#N (stereo unspecified) | 0.97 (inactive) | 5.24 µM
Cc1ccc(NC(=O)CCSc2nnnn2-c2ccc3c(c2)OCO3)cc1C | 0.74 (inactive) | 3.98 µM
C=CCOc1ccc(CNc2ccc(NC(=O)CC(C)C)cc2)cc1OC | 0.82 (inactive) | 4.43 µM
N=c1oc2c3c4c(cc2cc1C(=O)Nc1ccccc1)CCCN4CCC3 | 0.43 (inactive) | 2.32 µM
N#Cc1nc(COc2ccc(Br)cc2)oc1NCCN1CCOCC1 | 0.83 (inactive) | 4.5 µM
CCOC(=O)/C(=N\Nc1ccccc1Cl)N1CCN(Cc2ccccc2)CC1 | 0.63 (inactive) | 3.43 µM
CCN(CC)S(=O)(=O)c1cccc(NC(=O)CCSc2ccc(Cl)cc2)c1 | 0.89 (inactive) | 4.81 µM
Fc1ccc(N2CCN(c3ncnc4c3nnn4Cc3ccccc3Cl)CC2)cc1 | 0.86 (inactive) | 4.67 µM
Cc1ccc(N2C(=O)C3C(c4ccccc4)(C2=O)C3(c2ccccc2)c2ccccc2)cc1 (stereo unspecified) | 0.22 (inactive) | 1.16 µM
Cc1ccc(Nc2nc(CSc3nnnn3C)cs2)cc1 | 1.18 (inactive) | 6.36 µM

SMILES | fold increase in Dox EC50 | EC50
CCN(CC(=O)NC(C)C)C(=O)c1ccc(Cl)cc1 | 0.45 (inactive) | 2.41 µM
O=C(Nc1cccc([N+](=O)[O-])c1)c1[nH]ncc1Cl | 0.54 (inactive) | 2.89 µM
Cc1cccc(NC(=O)Cn2c(=O)n(Cc3ccco3)c(=N)c3c4c(sc32)COC(C)(C)C4)c1 | 0.81 (inactive) | 4.37 µM
N#CCSc1nc2cc(C(=O)N3CCC(C(N)=O)CC3)ccc2c2nc3ccccc3n12 | 0.86 (inactive) | 4.62 µM
Cc1cc(C)cc(-c2nc(-c3ccncc3)no2)c1 | 0.77 (inactive) | 4.13 µM
O=C(Nc1cccc(Cl)c1)c1c(O)c2c(n(Cc3ccccc3)c1=O)CCCC2 | 1.14 (inactive) | 6.17 µM
COc1cc(C2NC(=O)NC(C)=C2C(=O)OCc2ccc(C)cc2)cc(OC)c1O (stereo unspecified) | 0.68 (inactive) | 3.65 µM
O=C(COC(=O)c1c(Cl)cccc1Cl)Nc1cc(Cl)ccc1Oc1ccccc1 | 0.36 (inactive) | 1.97 µM
O=C(COc1nsnc1N1CCOCC1)N/N=C/c1ccccc1O | 0.26 (inactive) | 1.39 µM
CCOc1cc(/C=C2\SC(=Nc3ccccc3)N(c3ccccc3)C2=O)ccc1OCC(=O)O | 0.94 (inactive) | 5.09 µM
O=C(COc1ccc(Cl)cc1)N1CCN(Cc2ccccc2)CC1 | 1.38 (inactive) | 7.48 µM
Cc1oc(C(=O)Nc2ccc(C(=O)O)cc2)cc1COc1ccccc1 | 0.42 (inactive) | 2.24 µM
Cc1cccc2c3nc4ccccc4nc3n(CCCN3C(=O)c4ccccc4C3=O)c12 | 0.13 (inactive) | 0.717 µM
O=C(CSCc1ccc(Cl)cc1)N1CCN(Cc2ccc3c(c2)OCO3)CC1 | 0.77 (inactive) | 4.18 µM
Cc1ccc(C(=O)CSc2n[nH]c(-c3ccco3)n2)cc1C | 0.74 (inactive) | 3.97 µM
CCN(CC)CCN(Cc1cc2cc(C)cc(C)c2[nH]c1=O)C(=S)NCc1ccco1 | 0.19 (inactive) | 1.03 µM
CCc1nnc(NC(=O)[C@@H](NC(=O)c2cccc(S(=O)(=O)N(CC)CC)c2)C(C)C)s1 | 0.4 (inactive) | 2.18 µM
O=C(Nc1nnc(C(F)(F)F)s1)C1COc2ccccc2O1 (stereo unspecified) | 0.85 (inactive) | 4.56 µM
CCOP(=O)(OCC)C(NC(=O)Nc1ccc(Cl)cc1)C(=O)N(CC)CC (stereo unspecified) | 1.33 (inactive) | 7.16 µM
C[C@]12C=CC(=O)C=C1CC[C@H]1[C@@H]3C[C@@H](O)[C@](O)(C(=O)CO)[C@@]3(C)C[C@H](O)[C@@]12F | 1.41 (inactive) | 7.62 µM
COc1ccc(C2CC(c3ccc(Cl)cc3Cl)Nc3nc(N)nn32)cc1OC (stereo unspecified) | 1.05 (inactive) | 5.68 µM
O=C1NC(=O)C2(COC(c3ccccc3Cl)OC2)S1 (stereo unspecified) | 0.69 (inactive) | 3.74 µM
COc1cccc(C2CC(c3ccc(Cl)cc3)Nc3nc(N)nn32)c1 (stereo unspecified) | 0.88 (inactive) | 4.77 µM
CCc1nnc(NC(=O)c2ccc(-c3ccc(Cl)cc3)o2)s1 | 1.19 (inactive) | 6.41 µM
Cc1cccc(NC(=O)/C(=C\c2ccc([N+](=O)[O-])o2)NC(=O)c2ccc(Cl)cc2)c1 | 0.75 (inactive) | 4.04 µM

SMILES | fold increase in Dox EC50 | EC50
CCOc1ccccc1NC(=O)c1cccc(NC(=O)CC(c2ccccc2)c2ccccc2)c1 | 1.2 (inactive) | 6.45 µM
Cc1ccc(C(c2sc3ncnn3c2O)N2CC(C)CC(C)C2)cc1 (stereo unspecified) | 0.72 (inactive) | 3.89 µM
COc1ccc(CN=C2NC(=O)CC(C(=O)Nc3ccc(F)cc3)S2)cc1 (stereo unspecified) | 1.01 (inactive) | 5.47 µM
COc1ccccc1C1C(C(=O)c2sc(C)nc2C)=C(O)C(=O)N1CCN1CCOCC1 (stereo unspecified) | 0.71 (inactive) | 3.81 µM
COc1cc(/C=N/NC(=O)C23CC4CC(CC(C4)C2)C3)cc(Br)c1O | 0.66 (inactive) | 3.54 µM
O=C(NCCC1=CCCCC1)C1CCN(S(=O)(=O)c2cccc3cccnc23)CC1 | 0.43 (inactive) | 2.31 µM
COc1ccccc1CNC(=O)Cn1cc2c(n1)CCCC2 | 1.66 | 8.94 µM
Cc1ccc(C)c(N2CCN(C(=O)c3ccc4nc(-c5ccco5)c(-c5ccco5)nc4c3)CC2)c1 | 0.79 (inactive) | 4.25 µM
O=C1CSC2=NCN(c3ccccc3)CN12 | 0.55 (inactive) | 2.95 µM
CC(=O)/C(C#N)=C1\NC(=O)C(Cc2ccc(C)c(C)c2)S1 (stereo unspecified) | 1.19 (inactive) | 6.44 µM
COc1ccc(CNc2nc(NCc3ccc(OC)cc3)n(S(C)(=O)=O)n2)cc1 | 1.07 (inactive) | 5.78 µM
COc1ccc(N2CCN(c3nc(Cl)nc(N4CCOCC4)n3)CC2)cc1 | 0.69 (inactive) | 3.72 µM
Cc1cc(C(=O)COC(=O)c2ccc3c(c2)OCO3)c(C)n1Cc1cccs1 | 1.06 (inactive) | 5.7 µM
CCc1noc(C)c1C(=O)Nc1nc(-c2cc(C)ccc2C)c(C)s1 | 0.83 (inactive) | 4.48 µM
Cc1ccc(S(=O)(=O)N2CCC(C(=O)N[C@@H](C)C(=O)Nc3ccc4c(c3)OCO4)CC2)cc1 | 1.43 (inactive) | 7.7 µM
O=C1CC(c2ccccc2)c2cc(O)ccc2O1 (stereo unspecified) | 0.99 (inactive) | 5.35 µM
CN(C)C(=O)Oc1ccc(OC(=O)c2ccccc2)cc1 | 1.17 (inactive) | 6.32 µM
CCCN1C(=O)/C(=N\OCC(=O)Nc2ccc(C(C)C)cc2)c2ccccc21 | 0.74 (inactive) | 3.99 µM
O=C1Nc2ccccc2CCC1Sc1nnc(-c2ccc(Cl)cc2)s1 (stereo unspecified) | 1.32 (inactive) | 7.13 µM
CC(=O)c1ccc(NC(=O)CCCN2C(=O)/C(=C/C(C)=C/c3ccccc3)SC2=S)cc1 | 0.19 (inactive) | 1.01 µM
CN1/C(=C\C(=O)c2oc3ccccc3c2N)C(C)(C)c2ccccc21 | 0.7 (inactive) | 3.77 µM
Fc1ccc(-n2nnnc2-c2cnc(-c3cccs3)nc2C(F)(F)F)cc1 | 0.6 (inactive) | 3.24 µM
Cc1cc(C)n2nc(C(=O)Nc3nnc(C4CC4)s3)nc2n1 | 0.87 (inactive) | 4.7 µM
